Holding throughout (assay): ≥ marks a high value that may be exact or a test limit, other limits are often not marked, values filed in µg/mL are converted to µM
The test system of test [1] is Pseudomonas aeruginosa PAO1.
Test [2] concerns Streptococcus pyogenes M1T1 5448.
For test [3], the system named is Escherichia coli BL21.
Test [4] has as its system Escherichia coli NCTC 10418.
In test [5] the test system is Staphylococcus aureus NCTC 12981.
The subject of test [6] is Bacillus cereus ATCC 11778.
The test system of test [7] is Shigella sonnei ATCC 11060.
For test [8], the system named is Staphylococcus epidermidis ATCC 12228.
Test [9] deals with Escherichia coli O157:H7.
Test [10] deals with Listeria monocytogenes 10403s.
Test [11] concerns Staphylococcus aureus ATCC 25923.
Test [12] relates to Pseudomonas aeruginosa ATCC 27853.
For test [13], the system named is Vibrio cholerae O1 Inaba.
The subject of test [14] is Enterococcus faecalis ATCC 29212.
For test [15], the system named is Escherichia coli ATCC 25922.
Test [16] deals with Salmonella enterica subsp. enterica serovar Typhimurium ATCC 13311.
For test [17], the system named is Acinetobacter baumannii.
The test system of test [18] is Escherichia coli.
Test [19] concerns Escherichia coli KF111.
The subject of test [20] is Pseudomonas aeruginosa K799.
Test [21] relates to Staphylococcus epidermidis.
Test [22] deals with Escherichia coli KF130.
For test [23], the system named is Staphylococcus aureus.
For test [24], the system named is Escherichia coli UB1005.
For test [25], the system named is Pseudomonas aeruginosa H374.
Test [26] has as its system Pseudomonas aeruginosa H744.
In test [27] the test system is Salmonella enterica subsp. enterica serovar Typhimurium ATCC 14028s.

Converted amounts (≈) assume the structure as drawn. A value given as a limit tells only on which side of the number the result lay.

With `CC[C@H](C)[C@H](NC(=O)[C@H](CCCCN)NC(=O)[C@H](CCCCN)NC(=O)[C@H](CCCCN)NC(=O)[C@H](CC(C)C)NC(=O)[C@H](CCCN=C(N)N)NC(=O)[C@H](CCC(N)=O)NC(=O)[C@H](Cc1ccccc1)NC(=O)[C@@H](NC(=O)[C@@H](NC(=O)[C@H](CCC(=O)O)NC(=O)[C@H](CCCCN)NC(=O)CNC(=O)[C@H](C)N)[C@@H](C)O)[C@@H](C)CC)C(=O)N[C@@H](CCC(N)=O)C(=O)N[C@@H](CCC(=O)O)C(=O)N[C@@H](CCCCN)C(=O)N[C@@H](Cc1c[nH]c2ccccc12)C(=O)N[C@@H](CCCCN)C(=O)N[C@@H](CCCN=C(N)N)C(=O)N[C@@H](C)C(=O)N[C@H](C(=O)N[C@H](C(=O)N[C@@H](C)C(=O)N[C@@H](Cc1c[nH]c2ccccc12)C(=O)O)[C@@H](C)CC)[C@@H](C)O` [AGKETIFQRLKKKIQEKWKRATIAW], the MIC in test [1] turned out to be 16 µM (≈ 48.9 µg/mL); in test [2], 4 µM (≈ 12.2 µg/mL); in test [3], 1 µM (≈ 3.06 µg/mL).
In the same order, the values of `CC[C@H](C)[C@H](NC(=O)[C@H](CCC(=O)O)NC(=O)[C@H](CCCN=C(N)N)NC(=O)[C@H](CCCN=C(N)N)NC(=O)[C@H](CC(C)C)NC(=O)[C@H](Cc1ccc(O)cc1)NC(=O)[C@H](CCCCN)NC(=O)[C@H](C)NC(=O)[C@@H](NC(=O)[C@@H](NC(=O)[C@H](CCC(N)=O)NC(=O)[C@H](CCCN=C(N)N)NC(=O)[C@H](Cc1c[nH]c2ccccc12)NC(=O)[C@H](C)N)[C@@H](C)O)[C@@H](C)CC)C(=O)N[C@@H](CCCN=C(N)N)C(=O)N[C@@H](CCCCN)C(=O)N[C@@H](CCCN=C(N)N)C(=O)NCC(=O)N[C@@H](CCCN=C(N)N)C(=O)N[C@@H](CCCCN)C(=O)N[C@@H](C)C(=O)N[C@H](C(=O)N[C@H](C(=O)N[C@@H](C)C(=O)N[C@@H](Cc1c[nH]c2ccccc12)C(=O)O)[C@@H](C)CC)C(C)C` [AWRQTIAKYLRREIRKRGRKAVIAW] are 4 µM (≈ 12.5 µg/mL), 4 µM (≈ 12.5 µg/mL) and 1 µM (≈ 3.13 µg/mL).
In the case of `NC(=O)[C@H](Cc1ccccc1)NC(=O)[C@H](CCCN=C(N)N)NC(=O)[C@H](Cc1ccccc1)NC(=O)[C@H](CCCN=C(N)N)NC(=O)[C@@H](N)Cc1ccccc1` [FRFRF], the MIC in [4] and in test [5] was not below 166 µM throughout.
Turning to `CC[C@H](C)[C@H](NC(=O)[C@H](CC(=O)O)NC(=O)[C@H](Cc1ccccc1)NC(=O)[C@H](CC(C)C)NC(=O)CN)C(=O)N[C@H](C(=O)N[C@@H](CCCCN)C(=O)N[C@@H](CCCCN)C(=O)N[C@H](C(=O)N[C@@H](C)C(=O)NCC(N)=O)C(C)C)C(C)C` [GLFDIVKKVAG], the MIC in [6] was not below 218 µM; in [7], not below 218 µM; in test [8], more than 218 µM; in test [9], not below 218 µM; in test [10], not below 218 µM; in test [11], more than 218 µM. The MIC in test [12] is more than 218 µM; in [13], not below 218 µM; in test [14] it was more than 218 µM; in test [15] it was more than 218 µM; in test [16], not below 218 µM; in test [17] it was not below 218 µM.
On to `CC[C@H](C)[C@H](NC(=O)[C@H](CCCN=C(N)N)NC(=O)[C@H](CCCCN)NC(=O)[C@H](C)NC(=O)[C@@H](NC(=O)[C@@H](N)CCCCN)[C@@H](C)CC)C(=O)N[C@@H](Cc1c[nH]c2ccccc12)C(=O)N[C@@H](CCCCN)C(=O)N[C@H](C(=O)N[C@@H](CC(C)C)C(=O)N[C@@H](CCCN=C(N)N)C(=O)N[C@@H](CCCN=C(N)N)C(=O)N[C@@H](CCCN=C(N)N)C(=O)N[C@@H](CC(C)C)C(=O)N[C@@H](Cc1ccccc1)C(=O)N[C@@H](CCCN=C(N)N)C(=O)N[C@@H](CCCN=C(N)N)C(=O)N[C@H](C(=O)N[C@@H](CCCCN)C(=O)N[C@@H](CCCCN)C(=O)N[C@H](C(=O)N[C@@H](C)C(=O)NCC(N)=O)C(C)C)C(C)C)[C@@H](C)CC` [KIAKRIWKILRRRLFRRVKKVAG], for which the minimum inhibitory concentration (MIC) in test [6] is 2.7 µM (≈ 7.81 µg/mL); in test [7], 1.35 µM (≈ 3.91 µg/mL); in [8], 1.35 µM (≈ 3.91 µg/mL); in [9] it was not below 86.4 µM; in test [10], 1.35 µM (≈ 3.91 µg/mL); in test [11], 5.4 µM (≈ 15.6 µg/mL). The MIC in [12] was found to be 2.7 µM (≈ 7.81 µg/mL); in test [13] it was 2.7 µM (≈ 7.81 µg/mL); in [14], 10.8 µM (≈ 31.2 µg/mL); in test [15], 5.4 µM (≈ 15.6 µg/mL); in test [16], 2.7 µM (≈ 7.81 µg/mL); in [17], 2.7 µM (≈ 7.81 µg/mL).
In the case of `CC[C@H](C)[C@H](NC(=O)[C@H](C)NC(=O)[C@H](CCCCN)NC(=O)[C@H](CC(C)C)NC(=O)[C@H](C)NC(=O)[C@@H](NC(=O)[C@H](Cc1cnc[nH]1)NC(=O)[C@H](CC(C)C)NC(=O)[C@@H](NC(=O)[C@@H](NC(=O)[C@H](CCCCN)NC(=O)[C@@H](NC(=O)[C@H](C)NC(=O)[C@H](CO)NC(=O)[C@H](CCCCN)NC(=O)[C@H](Cc1ccccc1)NC(=O)[C@@H](NC(=O)[C@H](CCCCN)NC(=O)[C@H](CC(C)C)NC(=O)[C@H](Cc1ccccc1)NC(=O)[C@H](CO)NC(=O)[C@H](CCCCN)NC(=O)[C@H](Cc1c[nH]c2ccccc12)NC(=O)[C@@H](N)CCCCN)[C@@H](C)O)C(C)C)[C@@H](C)O)C(C)C)[C@@H](C)O)C(=O)N[C@@H](CO)C(=O)N[C@@H](CO)C(=O)O` [KWKSFLKTFKSAVKTVLHTALKAISS], the MIC in test [18] worked out at 0.171 µM (≈ 0.5 µg/mL); in test [19], 0.342 µM (≈ 1 µg/mL); in test [20], 0.685 µM (≈ 2 µg/mL); in test [21], 1.37 µM (≈ 4 µg/mL); in test [22], 0.342 µM (≈ 1 µg/mL); in test [23], 1.37 µM (≈ 4 µg/mL). The minimal inhibitory concentration (MIC) was 0.171 µM (≈ 0.5 µg/mL) in test [24]; 0.685 µM (≈ 2 µg/mL) in test [25]; 4 µM (≈ 11.7 µg/mL) in [12]; 0.685 µM (≈ 2 µg/mL) in [26]; 1.37 µM (≈ 4 µg/mL) in test [27].
For `CC[C@H](C)[C@H](NC(=O)[C@H](C)NC(=O)[C@H](CCCCN)NC(=O)[C@H](CC(C)C)NC(=O)[C@H](C)NC(=O)[C@@H](NC(=O)[C@H](Cc1cnc[nH]1)NC(=O)[C@H](Cc1ccccc1)NC(=O)[C@@H](NC(=O)[C@@H](NC(=O)[C@H](CCCCN)NC(=O)[C@H](C)NC(=O)[C@@H]1CCCN1C(=O)[C@H](CO)NC(=O)[C@H](CCCCN)NC(=O)[C@H](CC(C)C)NC(=O)[C@@H](NC(=O)[C@H](CCCN=C(N)N)NC(=O)[C@H](CC(C)C)NC(=O)[C@H](Cc1ccccc1)NC(=O)[C@H](CO)NC(=O)[C@H](CCCCN)NC(=O)[C@H](Cc1c[nH]c2ccccc12)NC(=O)[C@@H](N)CCCCN)[C@@H](C)O)[C@@H](C)O)C(C)C)[C@@H](C)O)C(=O)N[C@@H](CO)C(=O)N[C@@H](CO)C(=O)O` [KWKSFLRTLKSPAKTVFHTALKAISS], the MIC in [18] was 0.17 µM (≈ 0.5 µg/mL); in [19], 0.339 µM (≈ 1 µg/mL); in [20], 5.43 µM (≈ 16 µg/mL); in test [21], 1.36 µM (≈ 4 µg/mL); in test [22], 0.339 µM (≈ 1 µg/mL); in test [23], 10.9 µM (≈ 32 µg/mL). The MIC in test [24] was determined as 0.17 µM (≈ 0.5 µg/mL); in test [25] it was 2.72 µM (≈ 8 µg/mL); in test [26], 2.72 µM (≈ 8 µg/mL); in [27], 1.36 µM (≈ 4 µg/mL).
Take `CC(C)C[C@H](NC(=O)[C@H](CCCN=C(N)N)NC(=O)[C@@H]1CCCN1C(=O)[C@H](CCCN=C(N)N)NC(=O)[C@H](CCCN=C(N)N)NC(=O)[C@@H]1CCCN1C(=O)[C@@H](N)CCCN=C(N)N)C(=O)N1CCC[C@H]1C(=O)N[C@@H](Cc1c[nH]c2ccccc12)C(N)=O` [RPRRPRLPW]: the MIC in test [4] and in [5] was not below 104 µM in each case.

A word on the MIC: it is the lowest concentration that inhibits growth of the organism. Higher therefore signals a need for much substance.

For the origin of these results see DBAASP.
